This is an account of results in patent publication US10689399B2, “Substituted 3,4,5,6,8,10,14,14a-octahydro-2h-2,6-methanopyrido[1′,2′:4,5]pyrazino[2,1-b][1,3]oxazocines and methods for treating viral infections” (Gilead Sciences, Inc., priority 2012, dated 2020).

In one assay the test system is HIV-IIIb. Nature of the assay: Antiviral assay in MT4 cells. Conditions: Human immunodeficiency virus 1, IIIB, MT4, 120 h, MT4 cells infected with HIV-IIIb, 5 days, CellTiter-Glo; read-out: EC50 nM in MT-4. The class given is cell-based. A digest of the protocol:
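MT4 cells pre-infected with HIV-IIIb (0.004 m.o.i.) at 37 °C, or mock-infected, then seeded at 2000 cells/well onto 3-fold serially diluted compound (10 concentrations, quadruplicate) in RPMI 1640 with 10% FBS. After 5 days at 37 °C, cell viability read by CellTiter-Glo luminescence.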
As usually defined, the EC50 is the concentration that produces a half-maximal response. `O=C(NCc1c(F)cc(F)cc1F)c1cn2c(c(O)c1=O)C(=O)N1[C@H]3CC[C@H](C3)[C@@H]1C2` [Compound 41, (1R,4S,12aR)-7-hydroxy-6,8-dioxo-N-(2,4,6-trifluorobenzyl)-1,2,3,4,6,8,12,12a-octahydro-1,4-methanodipyrido[1,2-a:1′,2′-d]pyrazine-9-carboxamide]: the EC50 came out at 2.1 nM.

As for `O=C(NC1(c2ccc(F)cc2F)CC1)c1cn2c(c(O)c1=O)C(=O)N1C(C2)O[C@@H]2CCC[C@H]1C2` (stereo partly drawn) [Compound 29, (2R,6S)—N-(1-(2,4-difluorophenyl)cyclopropyl)-9-hydroxy-8,10-dioxo-3,4,5,6,8,10,14,14a-octahydro-2H-2,6-methanopyrido[1′,2′:4,5]pyrazino[2,1-b][1,3]oxazocine-11-carboxamide], the half-maximal effective concentration (EC50) is 13.9 nM.

Consider `O=C(NCc1ccc(F)c(Cl)c1F)c1cn2c(c(O)c1=O)C(=O)N1[C@@H]3C[C@H]([C@@H]1C2)C(F)(F)C3` [Compound 58, (1R,4R,12aR)—N-(3-chloro-2,4-difluorobenzyl)-2,2-difluoro-7-hydroxy-6,8-dioxo-1,2,3,4,6,8,12,12a-octahydro-1,4-methanodipyrido[1,2-a:1′,2′-d]pyrazine-9-carboxamide], for which the EC50 is 1.5 nM.

For the compound `O=C(NCc1cc(F)ccc1F)c1cn2c(c(O)c1=O)C(=O)N1[C@H]3CC[C@H](C3)O[C@@H]1C2` [Compound 89, (2R,5S,13aR)—N-(2,5-difluorobenzyl)-8-hydroxy-7,9-dioxo-2,3,4,5,7,9,13,13a-octahydro-2,5-methanopyrido[1′,2′:4,5]pyrazino[2,1-b][1,3]oxazepine-10-carboxamide], the EC50 stood at 8.4 nM.

Turning to `O=C(NCc1c(F)cc(F)cc1F)c1cn2c(c(O)c1=O)C(=O)N1[C@H]3CC[C@H](CC3)[C@@H]1C2` [Compound 102, (1S,4S,12aR)-7-hydroxy-6,8-dioxo-N-(2,4,6-trifluorobenzyl)-1,2,3,4,6,8,12,12a-octahydro-1,4-ethanodipyrido[1,2-a:1′,2′-d]pyrazine-9-carboxamide], the EC50 was 2.3 nM.

As for `O=C(NCc1c(F)cc(F)cc1F)c1cn2c(c(O)c1=O)C(=O)N1[C@H]3C[C@H](C3)[C@H]1C2` (single isomer, unassigned) [Compound 96], the EC50 came out at 2.6 nM.

In the case of `O=C(NCc1ccc(Cl)cc1F)c1cn2c(c(O)c1=O)C(=O)N1[C@H]3CC[C@H](C3)[C@@H]1C2` [Compound 92, (1R,4S,12aR)—N-(4-chloro-2-fluorobenzyl)-7-hydroxy-6,8-dioxo-1,2,3,4,6,8,12,12a-octahydro-1,4-methanodipyrido[1,2-a:1′,2′-d]pyrazine-9-carboxamide], the EC50 worked out at 18.6 nM.

Consider `C[C@H](NC(=O)c1cn2c(c(O)c1=O)C(=O)N1[C@H]3CC[C@H](C3)O[C@@H]1C2)c1ccc(F)cc1F` [Compound 14, (2R,5S,13aR)—N—((S)-1-(2,4-difluorophenyl)ethyl)-8-hydroxy-7,9-dioxo-2,3,4,5,7,9,13,13a-octahydro-2,5-methanopyrido[1′,2′:4,5]pyrazino[2,1-b][1,3]oxazepine-10-carboxamide], for which the EC50 came out at 65.5 nM.

As to `C[C@@H]1CCO[C@H]2Cn3cc(C(=O)NC4(c5ccc(F)cc5F)CC4)c(=O)c(O)c3C(=O)N12` [Compound 5, (4R,12aS)—N-(1-(2,4-difluorophenyl)cyclopropyl)-7-hydroxy-4-methyl-6,8-dioxo-3,4,6,8,12,12a-hexahydro-2H-[1,3]oxazino[3,2-d]pyrido[1,2-a]pyrazine-9-carboxamide], the EC50 was 8.1 nM.

For the compound `O=C(NCc1ccc(F)cc1C(F)(F)F)c1cn2c(c(O)c1=O)C(=O)N1[C@H]3CC[C@H](C3)O[C@@H]1C2` [Compound 62, (2R,5S,13aR)—N-(4-fluoro-2-(trifluoromethyl)benzyl)-8-hydroxy-7,9-dioxo-2,3,4,5,7,9,13,13a-octahydro-2,5-methanopyrido[1′,2′:4,5]pyrazino[2,1-b][1,3]oxazepine-10-carboxamide], the EC50 turned out to be 9.2 nM.

As to `C[C@H]1C[C@@H]2C[C@H]1N1C(=O)c3c(O)c(=O)c(C(=O)NCc4c(F)cc(F)cc4F)cn3C[C@H]21` [Compound 86, (1R,3S,4R,12aS)-7-hydroxy-3-methyl-6,8-dioxo-N-(2,4,6-trifluorobenzyl)-1,2,3,4,6,8,12,12a-octahydro-1,4-methanodipyrido[1,2-a:1′,2′-d]pyrazine-9-carboxamide], the EC50 came out at 2.3 nM.

With `O=C(NCc1ccc(F)c(F)c1F)c1cn2c(c(O)c1=O)C(=O)N1[C@H]3CC[C@H](C3)[C@@H]1C2` [Compound 91, (1R,4S,12aR)-7-hydroxy-6,8-dioxo-N-(2,3,4-trifluorobenzyl)-1,2,3,4,6,8,12,12a-octahydro-1,4-methanodipyrido[1,2-a:1′,2′-d]pyrazine-9-carboxamide], the EC50 amounted to 5 nM.

With `O=C(NCc1ccc(F)cc1F)c1cn2c(c(O)c1=O)C(=O)N1C(C2)O[C@@H]2CCC[C@H]1C2` (stereo partly drawn) [Compound 8, (2R,6S)—N-(2,4-difluorobenzyl)-9-hydroxy-8,10-dioxo-3,4,5,6,8,10,14,14a-octahydro-2H-2,6-methanopyrido[1′,2′:4,5]pyrazino[2,1-b][1,3]oxazocine-11-carboxamide], the EC50 amounted to 2.5 nM.

As to `Cc1cccc(CNC(=O)c2cn3c(c(O)c2=O)C(=O)N2[C@H]4CC[C@H](C4)[C@@H]2C3)c1F` [Compound 70, (1R,4S,12aR)—N-(2-fluoro-3-methylbenzyl)-7-hydroxy-6,8-dioxo-1,2,3,4,6,8,12,12a-octahydro-1,4-methanodipyrido[1,2-a:1′,2′-d]pyrazine-9-carboxamide], the EC50 is 5.1 nM.

With `O=C(NCc1c(F)cc(F)cc1F)c1cn2c(c(O)c1=O)C(=O)N1[C@H](C2)[C@H]2C[C@@H]1C(F)(F)C2` [Compound 83, (1S,4R,12aS)-3,3-di fluoro-7-hydroxy-6,8-dioxo-N-(2,4,6-trifluorobenzyl)-1,2,3,4,6,8,12,12a-octahydro-1,4-methanodipyrido[1,2-a:1′,2′-d]pyrazine-9-carboxamide], the EC50 stood at 1.9 nM.

Turning to `O=C(NCc1c(F)cc(F)cc1F)c1cn2c(c(O)c1=O)C(=O)N1[C@H](C2)[C@H]2C[C@H](F)[C@@H]1C2` [Compound 81, (1R,3S,4S,12aS)-3-fluoro-7-hydroxy-6,8-dioxo-N-(2,4,6-trifluorobenzyl)-1,2,3,4,6,8,12,12a-octahydro-1,4-methanodipyrido[1,2-a:1′,2′-d]pyrazine-9-carboxamide], the half-maximal effective concentration (EC50) is 1.9 nM.

As for `O=C(NCc1ccc(F)cc1OC1CC1)c1cn2c(c(O)c1=O)C(=O)N1[C@@H]3CC[C@@H](C3)O[C@H]1C2` [Compound 52, (2S,5R,13aS)—N-(2-cyclopropoxy-4-fluorobenzyl)-8-hydroxy-7,9-dioxo-2,3,4,5,7,9,13,13a-octahydro-2,5-methanopyrido[1%2′: 4,5]pyrazino[2,1-b][1,3]oxazepine-10-carboxamide], the EC50 worked out at 15 nM.

For `O=C(NC1(c2ccc(F)cc2F)CC1)c1cn2c(c(O)c1=O)C(=O)N1C(C2)O[C@@H]2CC[C@H]1C2` (stereo partly drawn) [Compound 31, (2R,5S)—N-(1-(2,4-difluorophenyl)cyclopropyl)-8-hydroxy-7,9-dioxo-2,3,4,5,7,9,13,13a-octahydro-2,5-methanopyrido[1′,2′:4,5]pyrazino[2,1-b][1,3]oxazepine-10-carboxamide], the EC50 amounted to 9 nM.

As for `O=C(NCc1ccc(F)c(C(F)(F)F)c1)c1cn2c(c(O)c1=O)C(=O)N1[C@@H]3CC[C@@H](C3)O[C@H]1C2` [Compound 25, (2S,5R,13aS)—N-(4-fluoro-3-(trifluoromethyl)benzyl)-8-hydroxy-7,9-dioxo-2,3,4,5,7,9,13,13a-octahydro-2,5-methanopyrido[1′,2′:4,5]pyrazino[2,1-b][1,3]oxazepine-10-carboxamide], the EC50 was found to be 26.2 nM.

As to `O=C(NCc1c(F)cc(F)cc1F)c1cn2c(c(O)c1=O)C(=O)N1[C@@H]3C[C@H]([C@@H]1C2)C(F)(F)C3` [Compound 57, (1R,4R,12aR)-2,2-difluoro-7-hydroxy-6,8-dioxo-N-(2,4,6-trifluorobenzyl)-1,2,3,4,6,8,12,12a-octahydro-1,4-methanodipyrido[1,2-a:1′,2′-d]pyrazine-9-carboxamide], the EC50 was 2.3 nM.

In the case of `C[C@H]1CO[C@@H]2Cn3cc(C(=O)NC4(c5ccc(F)cc5F)CC4)c(=O)c(O)c3C(=O)N12` [Compound 37, (3S,11aR)—N-(1-(2,4-difluorophenyl)cyclopropyl)-6-hydroxy-3-methyl-5,7-dioxo-2,3,5,7,11,11a-hexahydrooxazolo[3,2-a]pyrido[1,2-d]pyrazine-8-carboxamide], the EC50 came to 10.2 nM.

`C[C@@H](NC(=O)c1cn2c(c(O)c1=O)C(=O)N1[C@H]3CC[C@H](C3)[C@@H]1C2)c1ccc(F)cc1F` [Compound 43, (12aR)—N—((R)-1-(2,4-difluorophenyl)ethyl)-7-hydroxy-6,8-dioxo-1,2,3,4,6,8,12,12a-octahydro-1,4-methanodipyrido[1,2-a:1′,2′-d]pyrazine-9-carboxamide]: the EC50 was determined as 6.9 nM.

With `O=C(NCc1cc(F)c(F)cc1F)c1cn2c(c(O)c1=O)C(=O)N1[C@H]3CC[C@H](C3)[C@@H]1C2` [Compound 79, (1R,4S,12aR)-7-hydroxy-6,8-dioxo-N-(2,4,5-trifluorobenzyl)-1,2,3,4,6,8,12,12a-octahydro-1,4-methanodipyrido[1,2-a:1′,2′-d]pyrazine-9-carboxamide], the EC50 stood at 3.4 nM.

Still in this assay, the particulars now being: Human immunodeficiency virus 1, IIIB, MT4, 120 h, read-out: EC50 nM in MT-4, MT4 cells infected with HIV-IIIb, 5 days, CellTiter-Glo.
For the compound `O=C(NCc1ccc(F)cc1F)c1cn2c(c(O)c1=O)C(=O)N1[C@H]3CC[C@H](C3)[C@@H]1C2` [Compound 47, (1R,4S,12aR)—N-(2,4-difluorobenzyl)-7-hydroxy-6,8-dioxo-1,2,3,4,6,8,12,12a-octahydro-1,4-methanodipyrido[1,2-a:1′,2′-d]pyrazine-9-carboxamide], the EC50 turned out to be 1.9 nM.
